According to ChEMBL document CHEMBL1159359, “A new phytotoxic nonenolide from Phoma herbarum” (J Nat Prod, 2003):
Active and inactive are the calls of the source. The calls are words filed in the database; no cut-off is given here.

Columns and labels:
[1] = molecular target: Calmodulin (Bos taurus) (UniProt P62157); assay: Binding affinity to bovine brain calmodulin assessed as decrease in electrophoretic mobility at 0.033 ug/ml for 1.5 hrs by SDS-PAGE in presence of Ca2+ ions
[2] = Inhibition of bovine brain calmodulin-dependent cyclic nucleotide phosphodiesterase after 30 min; design: species or system Bos taurus
[3] = system: Amaranthus hypochondriacus; assay: Phytotoxicity against Amaranthus hypochondriacus seedlings assessed as inhibition of radical growth at 28 degC by petri dish assay; assay type: functional, organism-based

SMILES | Activity [1] | IC50 [2] | IC50 [3]
O=C(O)COc1ccc(Cl)cc1Cl [2,4-DICHLOROPHENOXYACETIC ACID] |  |  | 200 µM
CN(C)CCCN1c2ccccc2Sc2ccc(Cl)cc21 [CHLORPROMAZINE] |  | 9.8 µM | 

Now from value to compound, other results behind:

Activity [1] | IC50 [2] | SMILES | IC50 [3]
Active | 14.2 µM | CCC[C@H]1OC(=O)CCC/C=C/[C@H](O)[C@@H]1O [HERBARUMIN I] | 
Active |  | CCC[C@@H]1C[C@@H](O)/C=C/CCCC(=O)O1 [HERBARUMIN III] | 20 µM
Active | 6.6 µM | CCC[C@H]1OC(=O)[C@H](O)CC/C=C/[C@H](O)[C@@H]1O [HERBARUMIN II] | 
